A short description of series [1]: MDCK permeability assay, wild type MDCK cells with no inhibitor (A→B). The settings on record: dog, no Pgp inhibitor, apical to basolateral. The format is in vitro ADME, Canine. How it is done: (§1) Compounds were tested for permeability in an MDCK permeability assay. This assay measures the ability of compounds to cross a layer of Madin-Darby Canine Kidney (MDCK) cells from the apical to basolateral side (A→B). This measurement is predictive of the ability of compounds to be absorbed in the gut following oral dosing, an essential characteristic of an orally administered small molecule integrin inhibitor drug.
(§2) The assay is run in two formats. One uses wild type MDCK cells with no inhibitor. This method works well in determining the passive permeability of compounds with low efflux by P-glyocprotein (Pgp), and was used to assess permeability of a Reference Compound having the chemical formula shown below.
(§3) Cell Culture and Maintenance: • Cell stock cultures (MDCK or MDCK MDR1) are maintained in MEM+10% FBS+1% NEAA, grown in 75 cm^2 tissue culture treated flasks and split (passed) 2 times weekly to maintain desired confluence. • For maintenance passage: trypsinized cells are routinely distributed into new flasks at a standard passage ratio of 1:20.
(§4) Seeding assay plates: MDCK assay plates are seeded with MDCK or MDCK MCR1 cells 3-4 days prior to running the assay. 24-well plates are seeded at a cell density of 0.88×10^5/well in a 400 μL apical chamber volume (2.2×10^5/mL) with a […] volume of growth medium to the 24-well basal chamber. […]

Series [2] has as its system Madin-Darby Canine Kidney (MDCK) cells. Described as above. The following applies: no Pgp inhibitor, apical to basolateral. It counts as in vitro ADME. How it is done:
as §1, §2, §3, §4

As a reminder, the Papp A→B is the apparent permeability from the apical to the basolateral side of a cell layer. Low values mean poor permeation, high ones ready permeation.

With `O=C(O)CN1CCC(C(=O)N2CCC(c3ccc4c(n3)NCCC4)CC2)CC1` [Reference Compound], the Papp A→B at 90 min, 5 μM in series [1] was less than 0.23 ×10⁻⁶ cm/s. Also, the “MDCK (A −> B)” value in series [2] is listed as “less than 0.23”.
